Experimental data: BigSolDB 2.1

Cl.N/N=C(\N)NN
Conditions | solubility (mole fraction)
in THF, 273.15 K | 1.96e-05
in THF, 278.15 K | 2.74e-05
in THF, 283.15 K | 3.7e-05
in THF, 288.15 K | 5.17e-05
in THF, 293.15 K | 6.85e-05
in THF, 298.15 K | 9.12e-05
in THF, 303.15 K | 0.000119
in THF, 308.15 K | 0.000154
in THF, 313.15 K | 0.000209
in THF, 318.15 K | 0.000265
in THF, 323.15 K | 0.000333
in acetonitrile, 273.15 K | 7.35e-06
in acetonitrile, 278.15 K | 1.19e-05
in acetonitrile, 283.15 K | 1.4e-05
in acetonitrile, 288.15 K | 2.09e-05
in acetonitrile, 293.15 K | 2.72e-05
in acetonitrile, 298.15 K | 3.41e-05
in acetonitrile, 303.15 K | 5.02e-05
in acetonitrile, 308.15 K | 6.91e-05
in acetonitrile, 313.15 K | 8.3e-05
in acetonitrile, 318.15 K | 9.96e-05
in acetonitrile, 323.15 K | 0.000142
in ethanol, 273.15 K | 0.000112
in ethanol, 278.15 K | 0.000156
in ethanol, 283.15 K | 0.000207
in ethanol, 288.15 K | 0.0003
in ethanol, 293.15 K | 0.000373
in ethanol, 298.15 K | 0.00054
in ethanol, 303.15 K | 0.000666
in ethanol, 308.15 K | 0.000904
in ethanol, 313.15 K | 0.00119
in ethanol, 318.15 K | 0.00158
in ethanol, 323.15 K | 0.002
in ethyl acetate, 273.15 K | 1.56e-05
in ethyl acetate, 278.15 K | 2.2e-05
in ethyl acetate, 283.15 K | 3.03e-05
in ethyl acetate, 288.15 K | 4.16e-05
in ethyl acetate, 293.15 K | 5.57e-05
in ethyl acetate, 298.15 K | 7.51e-05
in ethyl acetate, 303.15 K | 0.000101
in ethyl acetate, 308.15 K | 0.00013
in ethyl acetate, 313.15 K | 0.000169
in ethyl acetate, 318.15 K | 0.000217
in ethyl acetate, 323.15 K | 0.000281
in isobutanol, 273.15 K | 2.22e-05
in isobutanol, 278.15 K | 3.04e-05
in isobutanol, 283.15 K | 4.2e-05
in isobutanol, 288.15 K | 5.88e-05
in isobutanol, 293.15 K | 7.77e-05
in isobutanol, 298.15 K | 0.000105
in isobutanol, 303.15 K | 0.000134
in isobutanol, 308.15 K | 0.000177
in isobutanol, 313.15 K | 0.000233
in isobutanol, 318.15 K | 0.000301
in isobutanol, 323.15 K | 0.000389
in isopropanol, 273.15 K | 2.41e-05
in isopropanol, 278.15 K | 3.39e-05
in isopropanol, 283.15 K | 4.68e-05
in isopropanol, 288.15 K | 6.35e-05
in isopropanol, 293.15 K | 8.43e-05
in isopropanol, 298.15 K | 0.000112
in isopropanol, 303.15 K | 0.000148
in isopropanol, 308.15 K | 0.000192
in isopropanol, 313.15 K | 0.000248
in isopropanol, 318.15 K | 0.000326
in isopropanol, 323.15 K | 0.000417
in methanol, 273.15 K | 0.00218
in methanol, 278.15 K | 0.00272
in methanol, 283.15 K | 0.00338
in methanol, 288.15 K | 0.00436
in methanol, 293.15 K | 0.00522
in methanol, 298.15 K | 0.00664
in methanol, 303.15 K | 0.00802
in methanol, 308.15 K | 0.00971
in methanol, 313.15 K | 0.0118
in methanol, 318.15 K | 0.0144
in methanol, 323.15 K | 0.0175
in n-butanol, 273.15 K | 3.27e-05
in n-butanol, 278.15 K | 4.64e-05
in n-butanol, 283.15 K | 6.17e-05
in n-butanol, 288.15 K | 8.36e-05
in n-butanol, 293.15 K | 0.000111
in n-butanol, 298.15 K | 0.000147
in n-butanol, 303.15 K | 0.000197
in n-butanol, 308.15 K | 0.000259
in n-butanol, 313.15 K | 0.000345
in n-butanol, 318.15 K | 0.000432
in n-butanol, 323.15 K | 0.000549
in n-heptane, 273.15 K | 1.74e-05
in n-heptane, 278.15 K | 2.52e-05
in n-heptane, 283.15 K | 3.41e-05
in n-heptane, 288.15 K | 4.7e-05
in n-heptane, 293.15 K | 6.36e-05
in n-heptane, 298.15 K | 8.63e-05
in n-heptane, 303.15 K | 0.000119
in n-heptane, 308.15 K | 0.000153
in n-heptane, 313.15 K | 0.000204
in n-heptane, 318.15 K | 0.000264
in n-heptane, 323.15 K | 0.000334
in n-hexane, 273.15 K | 1.77e-05
in n-hexane, 278.15 K | 2.5e-05
in n-hexane, 283.15 K | 3.47e-05
in n-hexane, 288.15 K | 4.69e-05
in n-hexane, 293.15 K | 6.58e-05
in n-hexane, 298.15 K | 8.84e-05
in n-hexane, 303.15 K | 0.000115
in n-hexane, 308.15 K | 0.000154
in n-hexane, 313.15 K | 0.000205
in n-hexane, 318.15 K | 0.000261
in n-hexane, 323.15 K | 0.00035
in n-propanol, 273.15 K | 4.25e-05
in n-propanol, 278.15 K | 5.9e-05
in n-propanol, 283.15 K | 7.94e-05
in n-propanol, 288.15 K | 0.00011
in n-propanol, 293.15 K | 0.000145
in n-propanol, 298.15 K | 0.000189
in n-propanol, 303.15 K | 0.000253
in n-propanol, 308.15 K | 0.000319
in n-propanol, 313.15 K | 0.000412
in n-propanol, 318.15 K | 0.000539
in n-propanol, 323.15 K | 0.000675
in water, 273.15 K | 0.0395
in water, 278.15 K | 0.0481
in water, 283.15 K | 0.0546
in water, 288.15 K | 0.0664
in water, 293.15 K | 0.0778
in water, 298.15 K | 0.0879
in water, 303.15 K | 0.101
in water, 308.15 K | 0.112
in water, 313.15 K | 0.127
in water, 318.15 K | 0.145
in water, 323.15 K | 0.161
